Source: US10513521B2, “Compositions and methods for inhibiting BMP” (The Brigham and Women's Hospital, Inc., priority 2014, dated 2019)
Values joined by “and” are separate entries in the source; they are usually repeats but may differ in a detail not shown here. Identical values can stand only once.

Tests used:
[1] = molecular target: T1, ALK1 (Bos taurus, UniProt A4FUX2); assay: In-cell Western ALK1 assay (BAOEC cells, BMP9 as agonist); type: cell-based, Bovine; settings: read-out: BMP9 ICW
T1 construct: The BAOEC cell line was employed for the measurement of ALK1 activity using BMP9 as the agonist; host or cells: BAOEC (bovine aortic endothelial cells)
T1 sequence (A4FUX2 23-503): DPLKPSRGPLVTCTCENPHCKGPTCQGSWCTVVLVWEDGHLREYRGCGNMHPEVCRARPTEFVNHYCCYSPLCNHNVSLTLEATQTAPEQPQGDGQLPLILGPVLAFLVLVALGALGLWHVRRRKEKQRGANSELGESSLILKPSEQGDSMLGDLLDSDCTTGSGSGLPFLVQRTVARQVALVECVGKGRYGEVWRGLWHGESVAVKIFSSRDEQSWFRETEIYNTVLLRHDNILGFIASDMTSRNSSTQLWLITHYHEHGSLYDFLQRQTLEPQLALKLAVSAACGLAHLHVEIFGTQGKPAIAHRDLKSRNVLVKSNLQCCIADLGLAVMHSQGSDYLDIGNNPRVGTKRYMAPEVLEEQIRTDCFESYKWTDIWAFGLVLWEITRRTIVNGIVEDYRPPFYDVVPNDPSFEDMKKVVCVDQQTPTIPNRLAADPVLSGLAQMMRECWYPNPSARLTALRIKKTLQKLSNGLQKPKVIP
Text: 3. In-Cell Western ALK1 and ALK2 Assays in 384-Well Plate Format.
We also optimized cell-based In-cell Western assays for measurements of ALK1 and ALK2 activities that were used to determine compound activities in these two kinases. The cell lines and agonists used were same as described in above cell-based HTRF ALK1 and ALK2 assays. The initial cell plating and compound treatment were also same. The main difference is the detection of phosphorylation status of SMAD1. In t-cell Western assay, the cells were fixed and phosphorylation status of SMAD1 was detected by the ELISA instead of using the HTRF assay kit in above assay.
C2C12 cells and RPMI 1640 medium were obtained from ATCC (Manassas, Va.) and Bovine Aortic endothelial Cells (BAOEC) and epithelial defined growth medium were purchased from Genlantis (San Deigo, Calif.). HyClone Fetal Bovine Serum was obtained from GE healthcare life sciences (Logan, Utah). BMP6 and BMP9 were purchased from R&D System (R&D). Anti-P-SMAD 1/5/8 rabbit mAb and anti-rabbit IgG, HRP-Linked antibody were purchased from Cell Signaling Technology (Danvers, Mass.). BioFX Chemiluminescent Ultra-Sensitive HRP Microwell Substrate ECL Reagent was obtained from SurModics (Edina, Minn.). The compound plates and the white solid MB assay plates were from Greiner Bio-one (Monroe, N.C.).
Similarly as described in above HTRF cell-based assay, this assay was performed in 384 well plate format. C2C12 were grown in T225 flasks were sterilely washed with 1×PBS pre-starved with medium containing 0.1% FBS for 20 hours. Pre-starved cells were then plated in 384 well plate in the starvation medium (containing in 0.1% FBS). After 4 hours, compound dilutions in DMSO were added to the assay plate and incubated for 30 minutes. The assay plate was then added with BMP6 for C2C12 cells or BMP9 for BAOEC cells and incubated for 30 minutes.
Cells were fixed with 50 ul ice-cold methanol and incubated for 15 min after removing the supernatant. The methanol was removed and filled with 0.5% glutaraldehyde and incubated at room temperature for 15 min. The cells were washed in the plate washer with PBS and blocked with 2% BSA in PBS for 1 h at room temperature on the rotator. After removing the blocking reagent, the cells were incubated with the anti-p-SMAD1 antibody in 2% BSA in PBS for overnight at 4° C. on rotator. The cells were washed with PBS in the plate washer and incubated with HRP conjugated second antibody in 2% BSA in PBS for 1 hour at room temperature. After a cell wash with PBS, ECL detection reagent was added and the plate was read in the luminesce mode in the ViewLux plate reader.

[2] = molecular target: T2, ALK4 (Homo sapiens, UniProt P36896); assay: TR-FRET enzymatic ALK kinase assay, ALK4
T2 sequence (P36896 24-505): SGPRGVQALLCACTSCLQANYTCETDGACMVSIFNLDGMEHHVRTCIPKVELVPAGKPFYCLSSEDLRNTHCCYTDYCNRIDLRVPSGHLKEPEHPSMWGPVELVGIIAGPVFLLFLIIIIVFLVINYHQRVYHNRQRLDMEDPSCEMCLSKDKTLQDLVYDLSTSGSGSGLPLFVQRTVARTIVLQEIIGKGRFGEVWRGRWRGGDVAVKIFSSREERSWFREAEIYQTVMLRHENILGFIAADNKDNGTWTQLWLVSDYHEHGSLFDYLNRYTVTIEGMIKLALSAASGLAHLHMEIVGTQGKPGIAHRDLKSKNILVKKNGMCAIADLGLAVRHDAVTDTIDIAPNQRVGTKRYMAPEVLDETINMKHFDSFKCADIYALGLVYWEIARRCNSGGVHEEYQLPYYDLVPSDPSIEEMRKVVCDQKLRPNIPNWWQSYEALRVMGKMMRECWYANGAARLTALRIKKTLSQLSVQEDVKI
Description: (§1) Briefly, the ALKs enzymatic assay was initiated by dispense 2.5 μl enzyme in 1× kinase reaction buffer. The assay plate was then added with compounds followed by incubation at room temperature for 10 minutes. Then 2.5 μl/well substrate was added.

[3] = molecular target: ALK6 (Homo sapiens, UniProt O00238); assay: TR-FRET enzymatic ALK kinase assay, ALK6
ALK6, sequence (O00238 14-502): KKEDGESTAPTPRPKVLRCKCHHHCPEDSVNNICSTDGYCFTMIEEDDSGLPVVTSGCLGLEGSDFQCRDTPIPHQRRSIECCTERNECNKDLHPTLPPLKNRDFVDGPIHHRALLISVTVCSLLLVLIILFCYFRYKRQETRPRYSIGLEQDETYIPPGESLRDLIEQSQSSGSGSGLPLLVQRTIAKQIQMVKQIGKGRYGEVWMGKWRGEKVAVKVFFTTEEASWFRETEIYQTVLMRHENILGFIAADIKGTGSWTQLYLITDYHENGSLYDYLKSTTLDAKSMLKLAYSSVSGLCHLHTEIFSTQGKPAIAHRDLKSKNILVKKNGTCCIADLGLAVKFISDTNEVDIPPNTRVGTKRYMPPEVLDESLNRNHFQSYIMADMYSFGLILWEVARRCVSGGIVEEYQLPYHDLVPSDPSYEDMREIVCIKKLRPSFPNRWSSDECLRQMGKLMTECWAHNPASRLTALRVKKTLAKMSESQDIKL
Description: as §1

[4] = molecular target: ALK3 (Homo sapiens, UniProt P36894); assay: TR-FRET enzymatic ALK kinase assay, ALK3
ALK3, sequence (P36894 24-532): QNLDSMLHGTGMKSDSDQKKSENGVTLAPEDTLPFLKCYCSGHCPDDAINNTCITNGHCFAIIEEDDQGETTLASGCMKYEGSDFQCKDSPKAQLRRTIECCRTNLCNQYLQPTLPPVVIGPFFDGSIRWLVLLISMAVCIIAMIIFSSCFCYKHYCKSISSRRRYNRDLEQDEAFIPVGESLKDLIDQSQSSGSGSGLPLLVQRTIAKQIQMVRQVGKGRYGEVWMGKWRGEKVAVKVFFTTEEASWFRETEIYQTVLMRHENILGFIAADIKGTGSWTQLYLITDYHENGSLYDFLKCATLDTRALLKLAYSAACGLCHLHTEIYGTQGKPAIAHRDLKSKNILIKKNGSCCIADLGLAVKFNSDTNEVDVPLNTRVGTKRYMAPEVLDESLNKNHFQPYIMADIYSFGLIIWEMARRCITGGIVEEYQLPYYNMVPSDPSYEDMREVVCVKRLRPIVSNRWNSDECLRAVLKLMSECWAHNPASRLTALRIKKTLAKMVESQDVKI
Description: as §1

[5] = molecular target: T3, ALK5 (Homo sapiens, UniProt P36897); assay: TR-FRET enzymatic ALK kinase assay, ALK5
T3 sequence (P36897 34-503): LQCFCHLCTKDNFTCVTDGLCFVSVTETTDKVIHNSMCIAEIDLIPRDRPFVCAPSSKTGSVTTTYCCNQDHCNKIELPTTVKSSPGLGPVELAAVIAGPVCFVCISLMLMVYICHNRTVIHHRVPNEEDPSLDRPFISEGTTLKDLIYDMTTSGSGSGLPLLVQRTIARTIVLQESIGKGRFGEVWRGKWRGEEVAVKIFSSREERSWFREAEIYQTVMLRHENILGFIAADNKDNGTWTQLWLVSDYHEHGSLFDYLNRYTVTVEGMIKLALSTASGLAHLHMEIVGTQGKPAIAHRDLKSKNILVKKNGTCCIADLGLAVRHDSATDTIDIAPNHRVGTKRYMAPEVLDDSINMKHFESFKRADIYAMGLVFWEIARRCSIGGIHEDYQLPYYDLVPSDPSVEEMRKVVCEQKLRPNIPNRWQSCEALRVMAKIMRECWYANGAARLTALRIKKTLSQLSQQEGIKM
Description: Six ALK kinase enzyme assays were developed for determination of compound activities on ALK1, ALK2, ALK3, ALK4, ALK5 and ALK6.
as §1

Row | IC50 [1] | IC50 [2] [nM] | IC50 [3] [nM] | IC50 [4] [nM] | IC50 [5] [nM] | SMILES
1 | 1500 nM | 9100 | 9000 | 1700 | > 10000 | CC1(c2ccc(-c3cnc4c(-c5cccc(S(C)(=O)=O)c5)cnn4c3)cc2)CCNCC1 [Compound 115, 6-(4-(4-methylpiperidin-4-yl)phenyl)-3-(3-(methylsulfonyl)phenyl)pyrazolo[1,5-a]pyrimidine]
2 | 2400 nM | 8500 | 8700 | 3400 | > 10000 | C[C@@H]1CNC[C@H](C)N1c1ccc(-c2cnc3c(-c4cccc(C[S+](C)(=O)[O-])c4)cnn3c2)cc1 [Compound 117, 6-(4-((2R,6S)-2,6-dimethylpiperazin-1-yl)phenyl)-3-(3-((methylsulfonyl)methyl)phenyl)pyrazolo[1,5-a]pyrimidine]
3 | – | > 10000 | 9600 | 1400 | > 10000 | CC(O)c1cccc(-c2cnn3cc(-c4ccc(OC5(CN6CCCCC6)CC5)cc4)cnc23)c1 (stereo not drawn) [Compound 143, 1-(3-(6-(4-(1-(piperidin-1-ylmethyl)cyclopropoxy)phenyl)pyrazolo[1,5-a]pyrimidin-3-yl)phenyl)ethanol]
4 | – | 4100 | 6300 | 1100 | > 10000 | CC(C)S(=O)(=O)c1cccc(-c2cnn3cc(-c4ccc(N5[C@H](C)CNC[C@@H]5C)cc4)cnc23)c1 [Compound 114, 6-(4-((2R,6S)-2,6-dimethylpiperazin-1-yl)phenyl)-3-(3-(isopropylsulfonyl)phenyl)pyrazolo[1,5-a]pyrimidine]
5 | – | > 10000 | 9200 | 4600 | > 10000 | CC(C)S(=O)(=O)c1cccc(-c2cnn3cc(-c4ccc(CCN5CCCCC5)cc4)cnc23)c1 [Compound 113, 3-(3-(isopropylsulfonyl)phenyl)-6-(4-(2-(piperidin-1-yl)ethyl)phenyl)pyrazolo[1,5-a]pyrimidine]
6 | – | > 10000 | > 10000 | > 10000 | > 10000 | CS(=O)(=O)c1cccc(-c2cnn3cc(-c4ccc(CN5CCCCC5)cc4)cnc23)c1 [Compound 123, 3-(3-(methylsulfonyl)phenyl)-6-(4-(piperidin-1-ylmethyl)phenyl)pyrazolo[1,5-a]pyrimidine]

The remaining lines, values behind:

Row | SMILES | IC50 [1] | IC50 [2] [nM] | IC50 [3] [nM] | IC50 [4] [nM] | IC50 [5] [nM]
7 | CS(=O)(=O)c1cccc(-c2cnn3cc(-c4ccc(OCCN5CCCC5)cc4)cnc23)c1 [Compound 108, 3-(3-(methylsulfonyl)phenyl)-6-(4-(2-(pyrrolidin-1-yl)ethoxy)phenyl)pyrazolo[1,5-a]pyrimidine] | 3900 nM | > 10000 | > 10000 | 2600 | > 10000
8 | C[C@@H]1CNC[C@H](C)N1c1ccc(-c2cnc3c(-c4cccc5c(C(N)=O)cccc45)cnn3c2)cc1 [Compound 10, 5-(6-(4-((2S,6R)-2,6-dimethylpiperazin-1-yl)phenyl)pyrazolo[1,5-a]pyrimidin-3-yl)-1-naphthamide] | 42 nM and 53 nM and 66 nM and 78 nM and 91 nM and 28 nM and 49 nM and 51 nM | 1070 | 34 | 18 | 9290
9 | CC[S+](=O)([O-])c1cccc(-c2cnn3cc(-c4ccc(N5[C@H](C)CNC[C@@H]5C)cc4)cnc23)c1 [Compound 104, 6-(4-((2R,6S)-2,6-dimethylpiperazin-1-yl)phenyl)-3-(3-(ethylsulfonyl)phenyl)pyrazolo[1,5-a]pyrimidine] | 1100 nM and 360 nM and 860 nM | 4800 | 7400 | 510 | > 10000
10 | CC(O)c1cccc(-c2cnn3cc(-c4ccc(N5[C@H](C)CNC[C@@H]5C)cc4)cnc23)c1 (stereo partly drawn) [Compound 83, 1-(3-(6-(4-((2R,6S)-2,6-dimethylpiperazin-1-yl)phenyl)pyrazolo[5-a]pyrimidin-3-yl)phenyl)ethanol] | 1400 nM and 1200 nM and 1500 nM and 1800 nM and 2600 nM and 690 nM and 770 nM and 1600 nM | 4400 | 5400 | 520 | > 10000
11 | CC(C)(CN1CCCCC1)Oc1ccc(-c2cnc3c(-c4cccc5c(C(N)=O)cccc45)cnn3c2)cc1 [Compound 18, 5-(6-(4-((2-methyl-1-(piperidin-1-yl)propan-2-yl)oxy)phenyl)pyrazolo[1,5-a]pyrimidin-3-yl)-1-naphthamide] | 26 nM | 2340 | 183 | 35 | 13500
12 | C[S+](=O)([O-])c1cccc(-c2cnn3cc(-c4ccc(OCCN5CCCCC5)cc4)cnc23)c1 [Compound 109] | – | > 10000 | > 10000 | 1500 | > 10000
13 | N/C(=N/O)c1ccc(-c2cnn3cc(-c4ccc(N5CCNCC5)cc4)cnc23)c2ccccc12 [Compound 15, N′-hydroxy-4-(6-(4-(piperazin-1-yl)phenyl)pyrazolo[1,5-a]pyrimidin-3-yl)-1-naphthimidamide] | 1500 nM | 30400 | 12800 | 1340 | 17500
14 | C[S+](=O)([O-])c1cccc(-c2cnn3cc(-c4ccc(OC5(CN6CCCCC6)COC5)cc4)cnc23)c1 [Compound 93, 3-(3-(methylsulfonyl)phenyl)-6-(4-((3-(piperidin-1-ylmethyl)oxetan-3-yl)oxy)phenyl)pyrazolo[1,5-a]pyrimidine] | 3300 nM and 1400 nM and 3000 nM and 3800 nM and 3600 nM and 1200 nM and 1900 nM | > 10000 | 2900 | 1500 | > 10000
15 | NS(=O)(=O)c1ccc(-c2cnn3cc(-c4ccc(CCN5CCCCC5)cc4)cnc23)c2ccccc12 [Compound 54, 4-(6-(4-(2-(piperidin-1-yl)ethyl)phenyl)pyrazolo[1,5-a]pyrimidin-3-yl)naphthalene-1-sulfonamide] | – | > 10000 | > 10000 | > 10000 | > 10000
